Measured values published in US20040106545A1, “Compounds and methods for modulating cell adhesion” (priority 1996, published 2004).
Where “and” joins values, the source holds several entries; their conditions need not be identical. Equal values may be shown once. Positions of bridges follow the written chain, without caps; N, C: chain ends. Residues, ends and D or L forms follow the SMILES beside them.

Tests used:
[1] = tested on: IAFp2; type: cell-based, human; conditions: 3 h
Outline: (§1)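 Peptide concentrations reached 100 μM. Both an MTT cytotoxicity read-out and ^3H-thymidine incorporation for proliferation were used.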

[2] = tested on: WI-38; type: cell-based, human; conditions: 3 h
Outline: as §1

[3] = tested on: human skin; test: Human skin permeability, Franz Cell apparatus
Protocol: Another cell adhesion assay involves evaluating the effect of a modulating agent on permeability of adherent epithelial and/or endothelial cell layers. For example, the effect on permeability of human skin may be evaluated. Such skin may be derived from a natural source or may be synthetic. Human abdominal skin for use in such assays may generally be obtained from humans at autopsy within 24 hours of death. Briefly, a cyclic peptide and a test marker (e.g., the fluorescent markers Oregon Green™ and Rhodamine Green™ Dextran) may be dissolved in a sterile buffer, and the ability of the marker to penetrate through the skin and into a receptor fluid may be measured using a Franz Cell apparatus (Franz, Curr. Prob. Dermatol. 7:58-68, 1978; Franz, J. Invest. Dermatol. 64:190-195, 1975). In general, a modulating agent that enhances the permeability of human skin results in a statistically significant increase in the amount of marker in the receptor compartment after 6-48 hours in the presence of 500 μg/mL modulating agent. This assay evaluates the effect of a modulating agent on E-cadherin mediated cell adhesion.
Abdominal skin from humans at autopsy within 24 hours of death was used in these assays. The effect of N—Ac-CHAVC-NH2 (SEQ ID NO:10) and N—Ac-CHGVC-NH2 (SEQ ID NO:11), used at a concentration of 500 μg/ml or 2.5 mg/ml, on the penetration of two fluorescent markers, Oregon Green 488 (charge −1, MW 386 daltons) and Rhodamine Green 3000 Dextran (no charge, MW 3000 daltons) through human skin was then evaluated utilizing a Franz Cell apparatus (Franz, Curr. Prob. Dermatol. 7:58-68, 1978; Franz, J. Invest. Dermatol. 64:190-195, 1975). The peptides and markers were dissolved in sterile phosphate buffer, pH 7.2, and phosphate buffer was used as the receptor fluid. 150 μl of solution containing 0.2 mg Oregon Green and 1.0 mg Rhodamine Green was used to evaluate 500 μg/ml peptide; 200 μl of solution containing 0.05 mg Oregon Green and 1.250 mg Rhodamine Green was used to evaluate 2.5 mg/ml peptide. The solution was placed on top of the epidermal side of the skin, and the penetration of the markers through the skin was assessed using a fluorescent spectrophotometric method (in a Perkin Elmer 650-105 Fluorescence Spectrophotometer, and comparing the reading to a standard curve) at 6, 12, 24, 36, and 48 hours after the start of the experiment. The fluorescent units were converted to a concentration unit of microgram/5 ml (volume of the receiver compartment) using a standard curve and regression analysis equations. The curve was linear for the concentrations tested for both markers (r^2=1 for OrG and 0.997 for RhG). For each peptide and marker combination, the experiment was performed in triplicate.

[4] = 500 μg/ml Peptide, t = 6 hours, Mean
[5] = 500 μg/ml Peptide, t = 6 hours, single replicates, listed as Sample#3
[6] = 500 μg/ml Peptide, t = 12 hours, Mean
[7] = 500 μg/ml Peptide, t = 12 hours, single replicates, listed as Sample#3
[8] = 500 μg/ml Peptide, t = 24 hours, Mean
[9] = 500 μg/ml Peptide, t = 24 hours, single replicates, listed as Sample#3
[10] = 500 μg/ml Peptide, t = 36 hours, Mean
[11] = 500 μg/ml Peptide, t = 36 hours, single replicates, listed as Sample#3
[12] = 500 μg/ml Peptide, t = 48 hours, Mean
[13] = 500 μg/ml Peptide, t = 48 hours, single replicates, listed as Sample#3
[14] = 2.5 mg/ml Peptide, t = 6 hours, Mean
[15] = 2.5 mg/ml Peptide, t = 6 hours, single replicates, listed as Sample#3
[16] = 2.5 mg/ml Peptide, t = 12 hours, Mean
[17] = 2.5 mg/ml Peptide, t = 12 hours, single replicates, listed as Sample#3
[18] = 2.5 mg/ml Peptide, t = 24 hours, Mean
[19] = 2.5 mg/ml Peptide, t = 24 hours, single replicates, listed as Sample#3
[20] = 2.5 mg/ml Peptide, t = 36 hours, Mean
[21] = 2.5 mg/ml Peptide, t = 36 hours, single replicates, listed as Sample#3
[22] = 2.5 mg/ml Peptide, t = 48 hours, Mean
[23] = 2.5 mg/ml Peptide, t = 48 hours, single replicates, listed as Sample#3

In the case of `CC[C@H](C)[C@@H]1NC(=O)[C@H](CC(=O)O)NC(=O)[C@H](C(C)C)NC(=O)[C@H](C)NC(=O)[C@H](Cc2c[nH]cn2)NC(=O)[C@H](C)NC(=O)[C@@H](NC(C)=O)CSSC[C@@H](C(N)=O)NC1=O` (Ac-CAHAVDIC-NH2; disulfide 1-8), the IC50 [1] is reported as > 100 µM and the IC50 [2] is reported as > 100 µM.

In the case of `CC(=O)N[C@H]1CSSC[C@@H](C(N)=O)NC(=O)[C@H](CC(=O)O)NC(=O)[C@H](C(C)C)NC(=O)[C@H](C)NC(=O)[C@H](Cc2c[nH]cn2)NC(=O)[C@H](C)NC1=O` [N—Ac—CAHAVDC—NH2, N-Ac-Cys-Ala-His-Ala-Val-Asp-Cys-NH2] (Ac-CAHAVDC-NH2; disulfide 1-7), the IC50 [1] is reported as > 100 µM and the IC50 [2] is reported as > 100 µM.

`CC(=O)N[C@H]1CSSC[C@@H](C(N)=O)NC(=O)[C@H](C(C)C)NC(=O)CNC(=O)[C@H](Cc2c[nH]cn2)NC1=O` [N—Ac—CHGVC—NH2, reference compound] was tested, and the “Percutaneous absorption concentration for Dextran Rhodamine Green 3000” value [3, 4] was 0.23 mg/5ml, the “Percutaneous absorption concentration for Oregon Green 488” value [3, 4] was 0.055 mg/5ml and the “Percutaneous absorption concentration for Dextran Rhodamine Green 3000” value [3, 5] was 0.2 mg/5ml (2×) and 0.3 mg/5ml. For the same compound, the “Percutaneous absorption concentration for Oregon Green 488” value [3, 5] was 0.098 mg/5ml and 0.022 mg/5ml and 0.045 mg/5ml, the “Percutaneous absorption concentration for Dextran Rhodamine Green 3000” value [3, 6] was 0.67 mg/5ml and the “Percutaneous absorption concentration for Oregon Green 488” value [3, 6] was 0.132 mg/5ml. The “Percutaneous absorption concentration for Dextran Rhodamine Green 3000” value [3, 7] was 0.6 mg/5ml and 1.0 mg/5ml and 0.4 mg/5ml, the “Percutaneous absorption concentration for Oregon Green 488” value [3, 7] was 0.200 mg/5ml and 0.107 mg/5ml and 0.088 mg/5ml and the “Percutaneous absorption concentration for Dextran Rhodamine Green 3000” value [3, 8] was 1.07 mg/5ml. For the same compound, the “Percutaneous absorption concentration for Oregon Green 488” value [3, 8] was 0.698 mg/5ml, the “Percutaneous absorption concentration for Dextran Rhodamine Green 3000” value [3, 9] was 1.0 mg/5ml and 1.4 mg/5ml and 0.8 mg/5ml and the “Percutaneous absorption concentration for Oregon Green 488” value [3, 9] was 0.709 mg/5ml and 0.864 mg/5ml and 0.522 mg/5ml. The “Percutaneous absorption concentration for Dextran Rhodamine Green 3000” value [3, 10] was 1.2 mg/5ml, the “Percutaneous absorption concentration for Oregon Green 488” value [3, 10] was 0.802 mg/5ml and the “Percutaneous absorption concentration for Dextran Rhodamine Green 3000” value [3, 11] was 1.0 mg/5ml (2×) and 1.6 mg/5ml. For the same compound, the “Percutaneous absorption concentration for Oregon Green 488” value [3, 11] was 0.769 mg/5ml and 0.923 mg/5ml and 0.714 mg/5ml, the “Percutaneous absorption concentration for Dextran Rhodamine Green 3000” value [3, 12] was 2.99 mg/5ml and the “Percutaneous absorption concentration for Oregon Green 488” value [3, 12] was 0.902 mg/5ml. For the same compound, the “Percutaneous absorption concentration for Dextran Rhodamine Green 3000” value [3, 13] was 1.8 mg/5ml (2×) and 5.370 mg/5ml, the “Percutaneous absorption concentration for Oregon Green 488” value [3, 13] was 0.923 mg/5ml and 1.021 mg/5ml and 0.764 mg/5ml and the “Percutaneous absorption concentration for Dextran Rhodamine Green 3000” value [3, 14] was 1.93 mg/5ml. For the same compound, the “Percutaneous absorption concentration for Oregon Green 488” value [3, 14] was 0.04 mg/5ml, the “Percutaneous absorption concentration for Dextran Rhodamine Green 3000” value [3, 15] was 1.8 mg/5ml and 0.2 mg/5ml and 3.8 mg/5ml and the “Percutaneous absorption concentration for Oregon Green 488” value [3, 15] was 0.04 mg/5ml and 0.01 mg/5ml and 0.06 mg/5ml. For the same compound, the “Percutaneous absorption concentration for Dextran Rhodamine Green 3000” value [3, 16] was 8.97 mg/5ml, the “Percutaneous absorption concentration for Oregon Green 488” value [3, 16] was 0.07 mg/5ml and the “Percutaneous absorption concentration for Dextran Rhodamine Green 3000” value [3, 17] was 17.02 mg/5ml and 2.0 mg/5ml and 7.89 mg/5ml. The “Percutaneous absorption concentration for Oregon Green 488” value [3, 17] was 0.11 mg/5ml and 0.04 mg/5ml and 0.08 mg/5ml, the “Percutaneous absorption concentration for Dextran Rhodamine Green 3000” value [3, 18] was 15.64 mg/5ml and the “Percutaneous absorption concentration for Oregon Green 488” value [3, 18] was 0.16 mg/5ml. For the same compound, the “Percutaneous absorption concentration for Dextran Rhodamine Green 3000” value [3, 19] was 27.47 mg/5ml and 5.56 mg/5ml and 13.9 mg/5ml, the “Percutaneous absorption concentration for Oregon Green 488” value [3, 19] was 0.12 mg/5ml and 0.11 mg/5ml and 0.26 mg/5ml and the “Percutaneous absorption concentration for Dextran Rhodamine Green 3000” value [3, 20] was 19.73 mg/5ml. The “Percutaneous absorption concentration for Oregon Green 488” value [3, 20] was 0.25 mg/5ml, the “Percutaneous absorption concentration for Dextran Rhodamine Green 3000” value [3, 21] was 33.06 mg/5ml and 5.79 mg/5ml and 20.35 mg/5ml and the “Percutaneous absorption concentration for Oregon Green 488” value [3, 21] was 0.23 mg/5ml and 0.22 mg/5ml and 0.29 mg/5ml. The “Percutaneous absorption concentration for Dextran Rhodamine Green 3000” value [3, 22] was 25.53 mg/5ml, the “Percutaneous absorption concentration for Oregon Green 488” value [3, 22] was 0.36 mg/5ml and the “Percutaneous absorption concentration for Dextran Rhodamine Green 3000” value [3, 23] was 40.86 mg/5ml and 8.25 mg/5ml and 27.48 mg/5ml. For the same compound, the “Percutaneous absorption concentration for Oregon Green 488” value [3, 23] was 0.36 mg/5ml and 0.26 mg/5ml and 0.46 mg/5ml.
